Assay results taken from patent US12667580B2, “Retinoic acid precursor and anticancer drug composition comprising same” (INDUSTRIAL COOPERATION FOUNDATION JEONBUK NATIONAL …, priority 2021, dated 2026).

Columns and labels:
[1] = system: A549 cells; test: MTT cytotoxicity, A549; type: cell-based; settings: 24 hours, RA (210 mM), HBA (220 mM)
Protocol: Next, to evaluate the cytotoxicity of tRABA, a 3-(4,5-dimethylthiazol-2-yl)-2,5-diphenyltetrazolium bromide (MTT)) analysis was performed. The cell survival rate was measured 24 hours after A549 cells were treated with RA, HBA, and tRABA, and the results are shown in FIG. 8C.

[2] = system: SW620 multicellular spheroids; test: Tumor penetration in multicellular spheroids; type: cell-based; settings: 6 hours
Source text: Next, SW620 multicellular spheroids were used to evaluate the tumor penetration of Nile Red-loaded tRABA nanoparticles. […] This means that tRABA penetrated much deeper into the spheroids than RABA. From this, it could be confirmed that tRABA has excellent tumor penetration.

[3] = Reactivity of RABA in the presence of H2O2 (1H NMR after incubation); type: physicochemical
Protocol: To evaluate the reactivity of the prepared RABA in the presence of H2O2, ^1H NMR of the RABA was taken after incubation in a 5 mM H2O2 solution.
The peaks at 7.3 and 7.8 ppm corresponding to aromatic protons disappeared, and new peaks at 6.8 and 7.1 ppm appeared. The peaks corresponding to benzylic proton were shifted from 5.1 ppm to 5.0 ppm. On the other hand, there was no peak shift in the RABA incubated in water without H2O2.

[4] = Self-assembly of nanoparticles in water, particle size and SEM; type: physicochemical
Protocol: RABA dissolved in tetrahydrofuran (THF) was added to water while stirring. During dilution in water, strong light scattering occurred due to the Tyndall phenomenon. […] The mean hydrodynamic diameter was measured to be ˜120 nm.
It was confirmed that the nanoparticles existed in a spherical colloidal state. In addition, an experiment was performed to confirm self-assembly of Compound 2, which is produced during the preparation process of RA and RABA.

[5] = system: HMGB1 released from A549 cells; test: HMGB-1 release; type: cell-based
Protocol: Next, since it is known that HMGB-1 is a nuclear protein that binds to DNA and is triggered by an apoptosis inducer and that in the late stage of apoptosis, cells are destroyed and HMGB-1 is released into the tumor microenvironment to induce dendritic cell maturation and antigen presentation, an experiment was performed to confirm the effect of tRABA nanoparticles on HMGB-1 release.

[6] = system: GSH in A549 cells; test: Intracellular GSH levels; type: cell-based; set-up: dose or concentration left out as unconfirmed
Protocol: Therefore, an experiment was conducted to measure intracellular GSH levels in A549 cells treated with tRABA.

[7] = system: calreticulin (CRT) in A549 cells; test: CRT level by flow cytometry; type: cell-based
Protocol: Next, since immunogenic apoptosis enhances immunogenicity and anticancer effects by releasing damage-associated molecular pattern (DAMP) substances during the cell dying process, an experiment was performed to confirm whether tRABA nanoparticles induce immunogenic cell death to improve immunogenicity. First, the expression levels of DAMPs such as calreticulin (CRT) and high mobility group box 1 (HMGB1) were confirmed as endoplasmic reticulum (ER) stress markers.

[8] = system: tumor model mice; test: Tumor growth inhibition in tumor model mice; type: in vivo, mouse; settings: i.v. on Days 1, 4, 7, 10, 13; RA 3 mg/kg, HBA 1.5 mg/kg, tRABA 5 mg/kg
Protocol: Next, the anticancer effect was evaluated by administering a therapeutic drug in the tumor model mice when the tumor size reached 50 mm^3. A therapeutic drug was intravenously administered on Days 1, 4, 7, 10, and 13 to the tumor model mice.

In the case of `CC1=C(/C=C/C(C)=C/C=C/C(C)=C/C(=O)O)C(C)(C)CCC1` [RA, Retinoic acid], the “cell survival rate / cytotoxicity (MTT)” value [1] is reported as “the cell survival rate decreased”.

In the case of `CC1=C(/C=C/C(C)=C/C=C/C(C)=C/C(=O)OCc2ccc(B(O)O)cc2)C(C)(C)CCC1` [RABA], the “spheroid penetration (fluorescence)” value [2] is reported as “weak fluorescence”, the “stability in water (1H NMR peak shift)” value ([3]; incubated in water without H2O2) is reported as “no peak shift” and the “reactivity in the presence of H2O2 (1H NMR peak shift)” value ([3]; incubation in a 5 mM H2O2 solution) is reported as “a shift of the peak due to the release of HBA was observed”. For the same compound, the self-assembly into nanoparticles ([4]; THF solution added to water, SEM) was “the nanoparticles were being formed well” and the mean hydrodynamic diameter ([4]; nanoparticles in water) was ~120 nm.

For hydroxybenzyl alcohol [HBA], the “level of HMGB-1” value [5] was “did not affect the level of HMGB-1”, the “intracellular GSH levels” value [6] was “no effect on the GSH levels” and the “level of CRT” value [7] was “almost no effect”. The tumor growth inhibition [8] was “negligible inhibitory effect on tumor growth”.
